Laboratory results taken from patent publication US20250161281A1, “EMOPAMIL-BINDING PROTEIN INHIBITORS AND USES THEREOF” (BIOGEN MA INC., priority 2022, published 2025).

Target: T1, EBP (Homo sapiens, UniProt Q15125)
T1 construct: HEK293T cells were utilized as the source of EBP enzyme; endogenous in cells; host or cells: HEK293T
Experiment: EBP Functional Assay (EBP immunoaffinity LC-MS assay)
Format: biochemical
Conditions: HEK293T cells as source of EBP enzyme; 30 min with inhibitor, then zymosterol-d5, 37° C. for 4 h; percent conversion by LC-APCI MRM MS
Method: The EBP immunoaffinity (IA) LC-MS assay measures the potency of small molecule inhibitors of EBP by quantifying their concentration-dependent changes in the enzyme's substrate and product using liquid chromatography atmospheric pressure chemical ionization multiple reaction monitoring mass spectrometry (LC-APCI MRM MS). HEK293T cells were utilized as the source of EBP enzyme. The enzyme was incubated with the small molecule inhibitors at variable concentrations for 30 min. Deuterated form of EBP substrate, zymosterol-d5 (Avanti Polar Lipids, Cat #700068P-1 mg), was then added and the plate was incubated at 37° C. for 4 h. Finally, the sterol isomers were extracted and injected to LC-APCI MRM MS. MRM transition used for the quantification for both zymosterol and dihydrolathosterol (substrate and product of EBP enzymatic reaction, respectively) is 372.3-203.2, CE 30 and DP 80 in positive ion mode. Percent conversion of the zymosterol-d5 to dehydrolathosterol-d5 was used to derive IC50 curves. Tasin-1 (1′-[(4-Methoxyphenyl)sulfonyl]-4-methyl-1,4′-bipiperidine, CAS 792927-06-1) was used as the reference small molecule inhibitor. Percent conversion versus the compound concentration data were fit to the following 4-parameter logistic model to generate IC50 curves: […]

T1 sequence (Q15125 whole entry): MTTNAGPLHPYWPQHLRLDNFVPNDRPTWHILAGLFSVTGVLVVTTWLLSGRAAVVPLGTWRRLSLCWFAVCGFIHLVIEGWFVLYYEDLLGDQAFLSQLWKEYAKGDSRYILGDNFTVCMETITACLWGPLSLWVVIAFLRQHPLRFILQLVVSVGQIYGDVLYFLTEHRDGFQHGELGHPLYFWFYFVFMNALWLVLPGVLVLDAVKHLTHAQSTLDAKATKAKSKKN

IC50	SMILES
< 50 nM	COc1nc(C)ccc1S(=O)(=O)N1[C@@H]2CC[C@H]1C[C@H](N1CCC(C)CC1)C2 [Example 3, (1R,3s,5S)-8-((2-Methoxy-6-methylpyridin-3-yl)sulfonyl)-3-(4-methylpiperidin-1-yl)-8-azabicyclo[3.2.1]octane]
150 to 2000 nM	O=S(=O)(c1ccc(OC(F)F)cc1)N1C2CCC1CC(NC[C@H]1C[C@H]1CO)C2 (mixture of isomers) [Example 56, rac-((1R,2S)-2-(((8-((4-(Difluoromethoxy)phenyl)sulfonyl)-8-azabicyclo[3.2.1]octan-3-yl)amino)methyl)cyclopropyl)methanol]
50 to 150 nM	O=S(=O)(c1ccc(OC(F)F)cc1)N1[C@@H]2CC[C@H]1C[C@@](O)(CN1CCOCC1)C2 [Example 34, (1R,3s,5S)-8-((4-(Difluoromethoxy)phenyl)sulfonyl)-3-(morpholinomethyl)-8-azabicyclo[3.2.1]octan-3-ol]
< 50 nM	CC1CCN([C@@H]2C[C@H]3CC[C@@H](C2)N3S(=O)(=O)c2cnc(C3CCOCC3)o2)CC1 [Example 6, 5-(((1R,3s,5S)-3-(4-Methylpiperidin-1-yl)-8-azabicyclo[3.2.1]octan-8-yl)sulfonyl)-2-(tetrahydro-2H-pyran-4-yl)oxazole]
< 50 nM	O=S(=O)(c1ccc(OC(F)F)cc1)N1[C@@H]2CC[C@H]1C[C@H](NCC1CCOCC1)C2 [Example 29, (1R,3s,5S)-8-((4-(Difluoromethoxy)phenyl)sulfonyl)-N-((tetrahydro-2H-pyran-4-yl)methyl)-8-azabicyclo[3.2.1]octan-3-amine]
< 50 nM	Cc1nc(C(F)(F)F)ccc1S(=O)(=O)N1[C@@H]2CC[C@H]1C[C@H](NC1CC3(COC3)C1)C2 (single isomer, unassigned) [Example 68]
< 50 nM	CC1CCN([C@@H]2C[C@H]3CC[C@@H](C2)N3S(=O)(=O)c2ccc(OC(F)F)cc2)CC1 [Example 21, (1R,3s,5S)-8-((4-(difluoromethoxy)phenyl)sulfonyl)-3-(4-methylpiperidin-1-yl)-8-azabicyclo[3.2.1]octane]
50 to 150 nM	O=S(=O)(c1ccc(OC(F)F)cc1)N1C2CCC1CC(N1CC3CC(C3)C1)C2 (centres unmarked) [Example 57, 3-(8-((4-(Difluoromethoxy)phenyl)sulfonyl)-8-azabicyclo[3.2.1]octan-3-yl)-3-azabicyclo[3.1.1]heptane]
< 50 nM	Cc1nc(C(F)(F)F)ccc1S(=O)(=O)N1[C@@H]2CC[C@H]1C[C@H](NCC1(C)COC1)C2 (single isomer, unassigned) [Example 26]
< 50 nM	CC1CCN([C@@H]2C[C@H]3CC[C@@H](C2)N3S(=O)(=O)c2cc(-c3ccccc3)n[nH]2)CC1 [Example 10, (1R,3s,5S)-3-(4-Methylpiperidin-1-yl)-8-((3-phenyl-1H-pyrazol-5-yl)sulfonyl)-8-azabicyclo[3.2.1]octane]
150 to 2000 nM	CC1CCN([C@@H]2C[C@H]3CC[C@@H](C2)N3S(=O)(=O)c2csc(C(F)(F)F)n2)CC1 [Example 42, 4-(((1R,3s,5S)-3-(4-Methylpiperidin-1-yl)-8-azabicyclo[3.2.1]octan-8-yl)sulfonyl)-2-(trifluoromethyl)thiazole]
50 to 150 nM	Cc1ccc(S(=O)(=O)N2[C@@H]3CC[C@H]2C[C@H](N2CCC(C)CC2)C3)c(C)n1 [Example 47, (1R,3s,5S)-8-((2,6-Dimethylpyridin-3-yl)sulfonyl)-3-(4-methylpiperidin-1-yl)-8-azabicyclo[3.2.1]octane]
150 to 2000 nM	CC(O)CCN[C@@H]1C[C@H]2CC[C@@H](C1)N2S(=O)(=O)c1ccc(OC(F)F)cc1 (mixture of isomers) [Example 60, rac-4-(((1R,3s,5S)-8-((4-(difluoromethoxy)phenyl)sulfonyl)-8-azabicyclo[3.2.1]octan-3-yl)amino)butan-2-ol]
50 to 150 nM	O=S(=O)(c1ccc(OC(F)F)cc1)N1C2CCC1CC(NCC1CC(O)C1)C2 (single isomer, unassigned) [Example 61]
< 50 nM	O=S(=O)(c1c(F)cc(OC(F)F)cc1F)N1[C@@H]2CC[C@H]1C[C@H](CN1CCOCC1)C2 [Example 35, 4-(((1R,3s,5S)-8-((4-(Difluoromethoxy)-2,6-difluorophenyl)sulfonyl)-8-azabicyclo[3.2.1]octan-3-yl)methyl)morpholine]
< 50 nM	O=S(=O)(c1ccc(OC(F)F)cc1)N1[C@@H]2CC[C@H]1C[C@H](CN1CCOCC1)C2 [Example 67, 4-(((1R,3s,5S)-8-((4-(Difluoromethoxy)phenyl)sulfonyl)-8-azabicyclo[3.2.1]octan-3-yl)methyl)morpholine]

IC50	SMILES
< 50 nM	COC(C)C(C)NC1CC2CCC(C1)N2S(=O)(=O)c1ccc(OC(F)F)cc1 (centres unmarked) [Example 55, 8-((4-(Difluoromethoxy)phenyl)sulfonyl)-N-(3-methoxybutan-2-yl)-8-azabicyclo[3.2.1]octan-3-amine]
150 to 2000 nM	Cc1ccnc(-n2cc(S(=O)(=O)N3[C@@H]4CC[C@H]3C[C@@H](N3CCC(C)CC3)C4)cn2)c1 [Example 40, (1R,3r,5S)-3-(4-methylpiperidin-1-yl)-8-((1-(4-methylpyridin-2-yl)-1H-pyrazol-4-yl)sulfonyl)-8-azabicyclo[3.2.1]octane]
< 50 nM	COCn1ncc(Cl)c1S(=O)(=O)N1[C@@H]2CC[C@H]1C[C@H](N1CCC(C)CC1)C2 [Example 4, (1R,3s,5S)-8-((4-Chloro-1-(methoxymethyl)-1H-pyrazol-5-yl)sulfonyl)-3-(4-methylpiperidin-1-yl)-8-azabicyclo[3.2.1]octane]
50 to 150 nM	O=S(=O)(c1ccc(OC(F)F)cc1)N1C2CCC1CC(NCC1CC(O)C1)C2 (single isomer, unassigned) [Example 62]
< 50 nM	Cc1cnn(C)c1S(=O)(=O)N1[C@@H]2CC[C@H]1C[C@H](N1CCC(C)CC1)C2 [Example 12, (1R,3s,5S)-8-((1,4-Dimethyl-1H-pyrazol-5-yl)sulfonyl)-3-(4-methylpiperidin-1-yl)-8-azabicyclo[3.2.1]octane]
< 50 nM	COCCC(C)NC1CC2CCC(C1)N2S(=O)(=O)c1ccc(OC(F)F)cc1 (centres unmarked) [Example 52, 8-((4-(Difluoromethoxy)phenyl)sulfonyl)-N-(4-methoxybutan-2-yl)-8-azabicyclo[3.2.1]octan-3-amine]
50 to 150 nM	O=S(=O)(c1ccc(OC(F)F)cc1)N1C2CCC1CC(N1C3CCCC1CC3)C2 (centres unmarked) [Example 53, 8-((4-(Difluoromethoxy)phenyl)sulfonyl)-8,8′-diaza-3,8′-bi(bicyclo[3.2.1]octane)]
< 50 nM	CC1CCN([C@@H]2C[C@H]3CC[C@@H](C2)N3S(=O)(=O)c2ccc3c(c2)COCC3)CC1 [Example 7, (1R,3s,5S)-8-(Isochroman-7-ylsulfonyl)-3-(4-methylpiperidin-1-yl)-8-azabicyclo[3.2.1]octane]
150 to 2000 nM	Cc1cnc(S(=O)(=O)N2[C@@H]3CC[C@H]2C[C@H](N2CCC(C)CC2)C3)c(C)c1 [Example 46, (1R,3s,5S)-8-((3,5-Dimethylpyridin-2-yl)sulfonyl)-3-(4-methylpiperidin-1-yl)-8-azabicyclo[3.2.1]octane]
< 50 nM	CC1(CNC2C[C@H]3CC[C@@H](C2)N3S(=O)(=O)c2ccc(OC(F)F)cc2)COC1 (mixture of isomers) [Example 15, 8-((4-(Difluoromethoxy)phenyl)sulfonyl)-N-((3-methyloxetan-3-yl)methyl)-8-azabicyclo[3.2.1]octan-3-amine]
< 50 nM	Cc1ccnc(-n2cc(S(=O)(=O)N3[C@@H]4CC[C@H]3C[C@H](N3CCC(C)CC3)C4)cn2)c1 [Example 41, (1R,3s,5S)-3-(4-Methylpiperidin-1-yl)-8-((1-(4-methylpyridin-2-yl)-1H-pyrazol-4-yl)sulfonyl)-8-azabicyclo[3.2.1]octane]
< 50 nM	CC1(CN[C@@H]2C[C@H]3CC[C@@H](C2)N3S(=O)(=O)c2ccc(OC(F)F)cc2)COC1 [Example 28, (1R,3s,5S)-8-((4-(Difluoromethoxy)phenyl)sulfonyl)-N-((3-methyloxetan-3-yl)methyl)-8-azabicyclo[3.2.1]octan-3-amine]
50 to 150 nM	COC1CCN(C2CC3CCC(C2)N3S(=O)(=O)c2ccc(OC(F)F)cc2)C1 (centres unmarked) [Example 50, 8-((4-(Difluoromethoxy)phenyl)sulfonyl)-3-(3-methoxypyrrolidin-1-yl)-8-azabicyclo[3.2.1]octane]
< 50 nM	O=S(=O)(c1ccc(OC(F)F)cc1)N1[C@@H]2CC[C@H]1C[C@@H](NCC1(O)CCOCC1)C2 [Example 17, 4-((((1R,3r,5S)-8-((4-(Difluoromethoxy)phenyl)sulfonyl)-8-azabicyclo[3.2.1]octan-3-yl)amino)methyl)tetrahydro-2H-pyran-4-ol]
50 to 150 nM	O=S(=O)(c1ccc(OC(F)F)cc1)N1C2CCC1CC(N[C@@H]1CCOC1)C2 (stereo partly drawn) [Example 70, 8-((4-(Difluoromethoxy)phenyl)sulfonyl)-N—((R)-tetrahydrofuran-3-yl)-8-azabicyclo[3.2.1]octan-3-amine]
< 50 nM	O=S(=O)(c1ccc(OC(F)F)cc1)N1C2CCC1CC(NCC1CCOCC1)C2 (centres unmarked) [Example 19, 8-((4-(Difluoromethoxy)phenyl)sulfonyl)-N-((tetrahydro-2H-pyran-4-yl)methyl)-8-azabicyclo[3.2.1]octan-3-amine]
